What all share (type): cell-based
The subject of assay [1] is A431 cells. The assay is described as follows: Cellular proliferation (Alamar Blue) assay, A431 cells. To be noted: A431 cells, 72 hr, Alamar Blue, read-out: A431 IC50. An outline of the steps:
(§1)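 Compound exposure lasted 72 h at 37 °C over a final 10–0.0005 μM range in 3-fold steps, with viability read by Alamar Blue after a further 3 h. Ba/F3 mutant lines were plated at 15,000 cells/well in RPMI/10% FBS, A431 at 5000/well in DMEM/10% FBS, 16–18 h beforehand.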
Background: The colour change of resazurin is a common sign of viable cells or microbes.

The target of assay [2] is EGFR (H773insNPH) expressing Ba/F3 stable cell line (Homo sapiens, UniProt P00533, DUP771-773, cells depend on it). The assay is described as follows: Cellular proliferation (Alamar Blue) assay, EGFR (H773insNPH) Ba/F3. To be noted: 72 hr, read-out: NPH IC50. The protocol: Cell line details: • 1. EGFR(D770_N771insSVD) expressing Ba/F3 stable cell line • 2. EGFR (A767_dupASV) expressing Ba/F3 stable cell line • 3. A431 cells • 4. EGFR (H773insNPH) expressing Ba/F3 stable cell line • 5. HER2 (A775_G776insYVMA) expressing Ba/F3 stable cell line
• 1. Seed cells at 5000 for A431 and 15,000 cells for Ba/F3 in 100 μL/well in complete media (for A431: DMEM with 10% FBS and for Ba/F3 cells: RPMI with 10% FBS) in 96-well tissue culture plate. Leave outer wells without cells for background measurements. Incubate at 37 degree Celsius in 5% CO2 humidified incubator for 16-18 hours. • 2. Add 0.025 ml of 5X concentration compound dilution or DMSO control. Final compound concentration range is 10-0.0005 μM prepared in 3-fold serial dilutions. Incubate for 72 hr at 37 degree Celsius in 5% CO2 humidified incubator. • 3. Add 0.0125 ml Alamar Blue™ reagent to each well with multi-channel pipette and tap gently on each side of the plate to mix. Incubate for 3 hours at 37 degree Celsius in 5% CO2 humidified incubator. • 4. […] Data analysis was performed using XLfit 5.5.0.5.

In assay [3] the target is HER2 (A775_G776insYVMA) expressing Ba/F3 stable cell line (Homo sapiens, UniProt P04626, DUP772-775, cells depend on it). The assay is described as follows: Cellular proliferation (Alamar Blue) assay, HER2 (A775_G776insYVMA) Ba/F3. Particulars: HER2 (A775_G776insYVMA) Ba/F3 cells; 72 hr; Alamar Blue; read-out: YVMA IC50. An outline of the steps: as §1
The target in assay [4] is EGFR (A767_dupASV) expressing Ba/F3 stable cell line (Homo sapiens, UniProt P00533, DUP767-769, cells depend on it). The experiment in a line: Cellular proliferation (Alamar Blue) assay, EGFR (A767_dupASV) Ba/F3. To be noted: 72 hr, read-out: A767 IC50. The essentials:
as §1

Assay [5] deals with EGFR(D770_N771insSVD) expressing Ba/F3 stable cell line (Homo sapiens, UniProt P00533, DUP768-770, cells depend on it). The experiment in a line: Cellular proliferation (Alamar Blue) assay, EGFR(D770_N771insSVD) Ba/F3. To be noted: 72 hr, read-out: D770 IC50. The essentials:
as §1

Read-outs that look alike come from different tables or passages of the source.

Chain of HER2 (A775_G776insYVMA) expressing Ba/F3 stable cell line (P04626 with tags, fused parts or gaps DUP772-775): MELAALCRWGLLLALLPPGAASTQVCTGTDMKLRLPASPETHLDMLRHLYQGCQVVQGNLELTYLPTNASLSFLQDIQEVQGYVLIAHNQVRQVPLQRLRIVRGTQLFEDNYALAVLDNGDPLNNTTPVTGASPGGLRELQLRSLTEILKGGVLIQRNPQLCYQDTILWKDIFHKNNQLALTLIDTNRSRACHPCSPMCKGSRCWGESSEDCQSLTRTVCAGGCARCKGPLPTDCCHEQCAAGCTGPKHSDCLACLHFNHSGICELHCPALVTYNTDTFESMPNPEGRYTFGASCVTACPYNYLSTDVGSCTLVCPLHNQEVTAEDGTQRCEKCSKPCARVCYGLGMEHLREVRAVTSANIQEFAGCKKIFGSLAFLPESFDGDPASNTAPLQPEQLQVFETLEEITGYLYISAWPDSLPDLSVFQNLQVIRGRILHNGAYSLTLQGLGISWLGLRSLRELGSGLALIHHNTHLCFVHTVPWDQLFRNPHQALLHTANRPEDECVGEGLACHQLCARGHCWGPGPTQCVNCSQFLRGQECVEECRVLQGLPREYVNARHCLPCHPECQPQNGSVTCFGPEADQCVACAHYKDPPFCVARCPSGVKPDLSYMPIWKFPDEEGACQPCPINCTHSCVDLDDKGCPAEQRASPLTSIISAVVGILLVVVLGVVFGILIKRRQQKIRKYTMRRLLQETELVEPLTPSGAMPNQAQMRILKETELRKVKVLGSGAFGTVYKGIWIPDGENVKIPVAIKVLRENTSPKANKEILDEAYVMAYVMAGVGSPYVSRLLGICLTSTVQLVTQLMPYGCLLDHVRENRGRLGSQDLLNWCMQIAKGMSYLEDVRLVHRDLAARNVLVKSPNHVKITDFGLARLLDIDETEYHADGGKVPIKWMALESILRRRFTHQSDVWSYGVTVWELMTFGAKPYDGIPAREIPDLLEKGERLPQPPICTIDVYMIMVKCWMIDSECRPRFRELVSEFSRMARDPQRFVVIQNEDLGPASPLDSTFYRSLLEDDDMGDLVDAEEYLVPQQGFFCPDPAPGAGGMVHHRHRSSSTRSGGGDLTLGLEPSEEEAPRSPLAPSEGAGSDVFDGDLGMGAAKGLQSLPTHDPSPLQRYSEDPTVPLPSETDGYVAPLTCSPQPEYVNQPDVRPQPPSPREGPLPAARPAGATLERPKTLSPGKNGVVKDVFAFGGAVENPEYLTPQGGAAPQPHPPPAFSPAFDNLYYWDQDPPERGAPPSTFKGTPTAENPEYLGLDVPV
Chain of EGFR(D770_N771insSVD) expressing Ba/F3 stable cell line (P00533 with tags, fused parts or gaps DUP768-770): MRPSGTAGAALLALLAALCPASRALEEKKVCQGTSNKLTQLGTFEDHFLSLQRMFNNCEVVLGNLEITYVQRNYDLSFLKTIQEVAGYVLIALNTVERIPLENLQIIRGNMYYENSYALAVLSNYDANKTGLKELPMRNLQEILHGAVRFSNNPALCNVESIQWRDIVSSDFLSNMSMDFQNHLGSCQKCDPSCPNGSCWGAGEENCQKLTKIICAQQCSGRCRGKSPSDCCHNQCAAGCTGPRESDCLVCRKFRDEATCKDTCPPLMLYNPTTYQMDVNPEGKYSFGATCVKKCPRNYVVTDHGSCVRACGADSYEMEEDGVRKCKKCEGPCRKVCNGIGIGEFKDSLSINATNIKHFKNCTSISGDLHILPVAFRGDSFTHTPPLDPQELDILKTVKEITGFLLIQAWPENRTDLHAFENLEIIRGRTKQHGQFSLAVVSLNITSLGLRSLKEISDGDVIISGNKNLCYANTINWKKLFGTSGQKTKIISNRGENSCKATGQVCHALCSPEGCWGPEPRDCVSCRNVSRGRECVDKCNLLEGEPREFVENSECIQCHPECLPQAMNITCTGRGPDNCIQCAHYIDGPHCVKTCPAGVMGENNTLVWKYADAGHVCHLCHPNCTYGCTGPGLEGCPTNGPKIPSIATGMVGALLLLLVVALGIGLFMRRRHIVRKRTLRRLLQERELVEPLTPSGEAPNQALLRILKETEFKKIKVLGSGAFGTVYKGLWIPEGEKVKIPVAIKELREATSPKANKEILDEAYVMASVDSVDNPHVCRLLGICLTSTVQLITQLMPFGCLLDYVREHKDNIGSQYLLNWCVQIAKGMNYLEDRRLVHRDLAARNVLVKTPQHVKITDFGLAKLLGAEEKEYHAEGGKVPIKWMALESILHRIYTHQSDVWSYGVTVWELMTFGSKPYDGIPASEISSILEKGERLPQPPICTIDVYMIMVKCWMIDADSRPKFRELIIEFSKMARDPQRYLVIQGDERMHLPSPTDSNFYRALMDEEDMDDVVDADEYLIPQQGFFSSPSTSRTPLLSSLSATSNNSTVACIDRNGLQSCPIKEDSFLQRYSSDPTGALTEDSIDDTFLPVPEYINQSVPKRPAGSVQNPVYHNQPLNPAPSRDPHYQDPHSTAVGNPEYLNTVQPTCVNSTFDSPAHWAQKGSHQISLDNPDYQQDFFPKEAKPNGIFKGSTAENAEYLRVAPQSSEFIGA
Chain of EGFR (A767_dupASV) expressing Ba/F3 stable cell line (P00533 with tags, fused parts or gaps DUP767-769): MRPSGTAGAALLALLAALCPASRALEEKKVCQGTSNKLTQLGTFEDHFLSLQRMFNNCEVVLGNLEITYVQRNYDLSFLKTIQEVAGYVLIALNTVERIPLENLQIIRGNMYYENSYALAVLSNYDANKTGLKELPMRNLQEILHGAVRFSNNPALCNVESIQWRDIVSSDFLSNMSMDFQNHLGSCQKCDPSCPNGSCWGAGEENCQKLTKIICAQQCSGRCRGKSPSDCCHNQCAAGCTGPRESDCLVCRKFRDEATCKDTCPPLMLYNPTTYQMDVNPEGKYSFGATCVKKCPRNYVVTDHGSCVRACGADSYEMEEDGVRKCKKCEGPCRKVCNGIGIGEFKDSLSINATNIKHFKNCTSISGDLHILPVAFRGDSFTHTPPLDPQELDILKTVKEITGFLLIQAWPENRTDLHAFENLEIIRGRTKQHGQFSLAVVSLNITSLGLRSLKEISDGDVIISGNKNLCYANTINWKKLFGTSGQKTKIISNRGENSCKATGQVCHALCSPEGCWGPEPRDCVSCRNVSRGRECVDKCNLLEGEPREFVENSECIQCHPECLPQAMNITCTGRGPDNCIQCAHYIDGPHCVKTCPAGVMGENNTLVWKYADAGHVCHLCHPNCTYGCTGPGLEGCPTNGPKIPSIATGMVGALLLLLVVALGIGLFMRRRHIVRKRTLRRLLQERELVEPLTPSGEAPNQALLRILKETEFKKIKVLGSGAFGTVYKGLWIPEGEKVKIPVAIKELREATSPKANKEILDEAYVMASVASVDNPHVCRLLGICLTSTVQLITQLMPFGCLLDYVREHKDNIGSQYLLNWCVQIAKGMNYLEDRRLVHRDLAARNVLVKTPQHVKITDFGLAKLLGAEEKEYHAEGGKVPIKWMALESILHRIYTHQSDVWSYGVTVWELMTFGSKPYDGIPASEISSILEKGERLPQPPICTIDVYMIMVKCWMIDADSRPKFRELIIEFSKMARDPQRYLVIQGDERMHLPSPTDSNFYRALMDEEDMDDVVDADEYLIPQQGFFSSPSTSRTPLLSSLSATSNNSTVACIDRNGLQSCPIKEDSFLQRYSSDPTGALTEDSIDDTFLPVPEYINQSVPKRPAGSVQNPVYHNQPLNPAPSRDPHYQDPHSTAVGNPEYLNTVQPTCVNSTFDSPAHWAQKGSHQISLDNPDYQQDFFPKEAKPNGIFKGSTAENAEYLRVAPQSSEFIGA
Chain of EGFR (H773insNPH) expressing Ba/F3 stable cell line (P00533 with tags, fused parts or gaps DUP771-773): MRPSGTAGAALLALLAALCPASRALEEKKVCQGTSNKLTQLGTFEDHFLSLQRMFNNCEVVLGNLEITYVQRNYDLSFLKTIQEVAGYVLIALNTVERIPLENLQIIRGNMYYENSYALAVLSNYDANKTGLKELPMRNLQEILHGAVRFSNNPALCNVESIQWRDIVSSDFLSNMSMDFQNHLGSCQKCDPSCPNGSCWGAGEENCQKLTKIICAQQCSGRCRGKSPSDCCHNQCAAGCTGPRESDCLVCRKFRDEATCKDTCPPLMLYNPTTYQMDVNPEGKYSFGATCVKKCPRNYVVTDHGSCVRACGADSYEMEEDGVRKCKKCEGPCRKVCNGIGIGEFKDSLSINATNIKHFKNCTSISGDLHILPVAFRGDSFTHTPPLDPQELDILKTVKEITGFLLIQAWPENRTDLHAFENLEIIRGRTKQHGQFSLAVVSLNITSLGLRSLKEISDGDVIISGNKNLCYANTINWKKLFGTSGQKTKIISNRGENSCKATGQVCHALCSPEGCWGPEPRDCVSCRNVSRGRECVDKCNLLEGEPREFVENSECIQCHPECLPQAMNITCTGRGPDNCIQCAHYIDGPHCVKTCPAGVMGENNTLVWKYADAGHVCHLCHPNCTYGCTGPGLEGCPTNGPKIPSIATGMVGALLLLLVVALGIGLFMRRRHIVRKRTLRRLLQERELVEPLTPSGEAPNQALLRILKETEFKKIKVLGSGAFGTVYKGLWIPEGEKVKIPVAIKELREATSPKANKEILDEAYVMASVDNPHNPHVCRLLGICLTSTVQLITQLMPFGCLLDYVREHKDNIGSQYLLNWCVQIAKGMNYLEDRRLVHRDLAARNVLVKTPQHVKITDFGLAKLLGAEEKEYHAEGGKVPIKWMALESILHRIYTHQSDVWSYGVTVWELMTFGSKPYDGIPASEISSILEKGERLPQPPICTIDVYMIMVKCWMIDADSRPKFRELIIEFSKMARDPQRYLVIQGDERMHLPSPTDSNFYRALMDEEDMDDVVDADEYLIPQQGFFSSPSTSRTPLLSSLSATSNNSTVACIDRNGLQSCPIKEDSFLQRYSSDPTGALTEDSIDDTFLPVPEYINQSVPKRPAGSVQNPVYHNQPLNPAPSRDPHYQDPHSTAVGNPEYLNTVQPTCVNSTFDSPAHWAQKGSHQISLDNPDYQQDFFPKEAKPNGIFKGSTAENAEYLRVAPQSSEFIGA

Consider `C=CC(=O)Nc1ccc(F)c(Nc2nc(Nc3cnn(C)c3)ncc2-c2cnc(Cl)c(C)c2)c1` [Compound 48, N-(3-((5-(6-chloro-5-methylpyridin-3-yl)-2-((1-methyl-1H-pyrazol-4-yl)amino)pyrimidin-4-yl)amino)-4-fluorophenyl)acrylamide], for which, in assay [1] (Homo sapiens, A-431, 72 h), the IC50 (usually the concentration that gives 50% inhibition) is 0.068 µM. The GI50 worked out at 0.031 µM in assay [2] and 0.036 µM in assay [3].

In the case of `C=CC(=O)Nc1ccc(F)c(Nc2nc(Nc3cnn(C)c3)ncc2-c2ccc(OC(F)(F)F)c(F)c2)c1` [Compound 14, N-(4-fluoro-3-((5-(3-fluoro-4-(trifluoromethoxy)phenyl)-2-((1-methyl-1H-pyrazol-4-yl)amino)pyrimidin-4-yl)amino)phenyl)acrylamide], the GI50 in assay [4] was found to be 0.026 µM; in assay [2], 0.059 µM; in assay [3], 0.107 µM. In assay [1] (Homo sapiens, A-431, 72 h), the 50% inhibitory concentration (IC50) stood at 0.14 µM.

On to `C=CC(=O)Nc1ccc(F)c(Nc2nc(Nc3cnn(C)c3)ncc2-c2cc(F)cc(Cl)c2)c1` [Compound 34, N-(3-((5-(3-chloro-5-fluorophenyl)-2-((1-methyl-1H-pyrazol-4-yl)amino)pyrimidin-4-yl)amino)-4-fluorophenyl)acrylamide], for which the values for the GI50 in assay [4], in assay [2] and in assay [3] were 0.039 µM, 0.05 µM and 0.084 µM, respectively. Also, in assay [1] (Homo sapiens, A-431, 72 h), the IC50 was 0.303 µM.

Take `C=CC(=O)Nc1ccc(F)c(Nc2nc(Nc3cnn(CCO)c3)ncc2-c2ccc(Cl)c(Cl)c2)c1` [Compound 51, N-(3-((5-(3,4-dichlorophenyl)-2-((1-(2-hydroxyethyl)-1H-pyrazol-4-yl)amino)pyrimidin-4-yl)amino)-4-fluorophenyl)acrylamide]: the GI50 in assay [5] worked out at 0.038 µM; in assay [4], 0.056 µM; in assay [2], 0.079 µM. In addition, the IC50 in assay [1] (Homo sapiens, A-431, 72 h) is 0.11 µM.

As to `C=CC(=O)Nc1cccc(Nc2nc(Nc3cnn(C)c3)ncc2-c2ccc(N(C)C)c(F)c2)c1` [Compound 30, N-(3-((5-(4-(dimethylamino)-3-fluorophenyl)-2-((1-methyl-1H-pyrazol-4-yl)amino)pyrimidin-4-yl)amino)phenyl)acrylamide], the GI50 was 0.035 µM in assay [5], 0.04 µM in assay [2] and 0.091 µM in assay [3]. For the same compound, the IC50 in assay [1] (Homo sapiens, A-431, 72 h) is 0.299 µM.

`C=CC(=O)Nc1ccc(F)c(Nc2nc(Nc3cnn(C)c3)ncc2-c2ccc(N3CCCOCC3)c(F)c2)c1` [Compound 84, N-(4-fluoro-3-((5-(3-fluoro-4-(1,4-oxazepan-4-yl)phenyl)-2-((1-methyl-1H-pyrazol-4-yl)amino)pyrimidin-4-yl)amino)phenyl)acrylamide]: the results for the GI50 in assay [5], in assay [4] and in assay [2] were 0.122 µM, 0.101 µM and 0.092 µM, respectively. Besides, in assay [1] (Homo sapiens, A-431, 72 h), the IC50 came to 0.522 µM.

As to `C=CC(=O)Nc1cccc(Nc2nc(Nc3cnn(C)c3)ncc2-c2ccc(Cl)c(F)c2)c1` [Compound 68, N-(3-((5-(4-chloro-3-fluorophenyl)-2-((1-methyl-1H-pyrazol-4-yl)amino)pyrimidin-4-yl)amino)phenyl)acrylamide], the GI50 in assay [5] was found to be 0.014 µM; in assay [4] it was 0.023 µM; in assay [2] it was 0.021 µM. The 50% inhibitory concentration (IC50) in assay [1] (Homo sapiens, A-431, 72 h) was found to be 0.06 µM.

With `C=CC(=O)Nc1ccc(F)c(Nc2nc(Nc3cnn(C4COC4)c3)ncc2-c2ccc(Br)c(F)c2)c1` [Compound 94, N-(3-((5-(4-bromo-3-fluorophenyl)-2-((1-(oxetan-3-yl)-1H-pyrazol-4-yl)amino)pyrimidin-4-yl)amino)-4-fluorophenyl)acrylamide], the GI50 in assay [4] was determined as 0.04 µM; in assay [2], 0.035 µM; in assay [3], 0.144 µM. Further, the 50% inhibitory concentration (IC50) in assay [1] (Homo sapiens, A-431, 72 h) was 0.031 µM.

Turning to `C=CC(=O)Nc1ccc(F)c(Nc2nc(Nc3cnn(C)c3)ncc2-c2cc(F)c(Br)c(Cl)c2)c1` [Compound 123, N-(3-((5-(4-bromo-3-chloro-5-fluorophenyl)-2-((1-methyl-1H-pyrazol-4-yl)amino)pyrimidin-4-yl)amino)-4-fluorophenyl)acrylamide], the results for the GI50 in assay [5], in assay [4] and in assay [3] were 0.04 µM, 0.05 µM and 0.066 µM, respectively. In assay [1] (Homo sapiens, A-431, 72 h), the IC50 stood at 0.071 µM.

With `C=CC(=O)Nc1ccc(F)c(Nc2nc(Nc3cnn(C)c3)ncc2-c2cc(C(F)F)cc(C(F)F)c2)c1` [Compound 155, N-(3-((5-(3,5-bis(difluoromethyl)phenyl)-2-((1-methyl-1H-pyrazol-4-yl)amino)pyrimidin-4-yl)amino)-4-fluorophenyl)acrylamide], the GI50 in assay [5] came to 0.107 µM; in assay [4], 0.133 µM; in assay [3], 1.67 µM. Moreover, in assay [1] (Homo sapiens, A-431, 72 h), the IC50 was found to be 0.338 µM.

`C=CC(=O)Nc1ccc(F)c(Nc2nc(Nc3cnn(C)c3)ncc2-c2cccc(Br)c2F)c1` [Compound 113, N-(3-((5-(3-bromo-2-fluorophenyl)-2-((1-methyl-1H-pyrazol-4-yl)amino)pyrimidin-4-yl)amino)-4-fluorophenyl)acrylamide]: the GI50 in assay [5] was found to be 0.07 µM; in assay [4], 0.092 µM; in assay [3], 0.463 µM. Further, the IC50 in assay [1] (Homo sapiens, A-431, 72 h) amounted to 0.073 µM.

With `C=CC(=O)Nc1cc(Cl)cc(Nc2nc(Nc3cnn(C)c3)ncc2-c2ccc(Br)c(F)c2)c1` [Compound 159, N-(3-((5-(4-bromo-3-fluorophenyl)-2-((1-methyl-1H-pyrazol-4-yl)amino)pyrimidin-4-yl)amino)-5-chlorophenyl)acrylamide], the GI50 in assay [5] was 0.024 µM; in assay [4], 0.029 µM; in assay [3], 0.125 µM. For the same compound, in assay [1] (Homo sapiens, A-431, 72 h), the IC50 was determined as 0.023 µM.

For `C=CC(=O)Nc1cccc(Nc2nc(Nc3cnn(C)c3)ncc2-c2cc(F)cc(OC)c2)c1` [Compound 127, N-(3-((5-(3-fluoro-5-methoxyphenyl)-2-((1-methyl-1H-pyrazol-4-yl)amino)pyrimidin-4-yl)amino)phenyl)acrylamide], the results for the GI50 in assay [5], in assay [4] and in assay [3] were 0.089 µM, 0.312 µM and 0.167 µM, respectively. Moreover, in assay [1] (Homo sapiens, A-431, 72 h), the half-inhibitory concentration (IC50) came to 0.123 µM.

Consider `CN(C)C/C=C/C(=O)Nc1ccc(F)c(Nc2nc(Nc3cnn(C)c3)ncc2-c2cc(F)cc(F)c2)c1` [Compound 161, (E)-N-(3-((5-(3,5-difluorophenyl)-2-((1-methyl-1H-pyrazol-4-yl)amino)pyrimidin-4-yl)amino)-4-fluorophenyl)-4-(dimethylamino)but-2-enamide], for which the GI50 in assay [5] amounted to 0.217 µM; in assay [4], 0.14 µM; in assay [3] it was 0.062 µM. In addition, in assay [1], the IC50 is 0.759 µM.

For `C=CC(=O)Nc1cccc(Nc2nc(Nc3cnn(C)c3)ncc2-c2ccc(OC)c(F)c2)c1` [Compound 69, N-(3-((5-(3-fluoro-4-methoxyphenyl)-2-((1-methyl-1H-pyrazol-4-yl)amino)pyrimidin-4-yl)amino)phenyl)acrylamide], the GI50 in assay [4] is 0.014 µM; in assay [2] it was 0.021 µM; in assay [3], 0.027 µM. Also, in assay [1] (Homo sapiens, A-431, 72 h), the IC50 is 0.073 µM.

On to `C=CC(=O)Nc1ccc(F)c(Nc2nc(Nc3cnn(C)c3)ncc2-c2cc(OC)ccc2Cl)c1` [Compound 8, N-(3-((5-(2-chloro-5-methoxyphenyl)-2-((1-methyl-1H-pyrazol-4-yl)amino)pyrimidin-4-yl)amino)-4-fluorophenyl)acrylamide], for which the GI50 was 1.59 µM in assay [5], 0.749 µM in assay [4] and 0.644 µM in assay [3]. Besides, the IC50 in assay [1] (Homo sapiens, A-431, 72 h) is over 10 µM.

As for `C=CC(=O)Nc1ccc(F)c(Nc2nc(Nc3cn(C)nc3Cl)ncc2-c2cc(F)cc(F)c2)c1` [Compound 104, N-(3-((2-((3-chloro-1-methyl-1H-pyrazol-4-yl)amino)-5-(3,5-difluorophenyl)pyrimidin-4-yl)amino)-4-fluorophenyl)acrylamide], the values for the GI50 in assay [5], in assay [4] and in assay [3] were 0.034 µM, 0.044 µM and 0.064 µM, respectively. In addition, the half-inhibitory concentration (IC50) in assay [1] (Homo sapiens, A-431, 72 h) was 0.017 µM.

For `C=CC(=O)Nc1ccc(F)c(Nc2nc(Nc3cnn(C)c3)ncc2-c2ccc(Br)c(F)c2)c1` [Compound 87, N-(3-{[5-(4-bromo-3-fluorophenyl)-2-[(1-methyl-1H-pyrazol-4-yl)amino]pyrimidin-4-yl]amino}-4-fluorophenyl) prop-2-enamide], the concentration for half-maximal inhibition (IC50) in assay [1] (Homo sapiens, A-431, 72 h) is 0.018 µM. The GI50 was found to be 0.116 µM in assay [2] and 0.083 µM in assay [3].

Values taken from patent US20230416232A1, “PYRIMIDINE COMPOUNDS, COMPOSITIONS, AND MEDICINAL APPLICATIONS THEREOF” (Blueprint Medicines Corporation, priority 2020, published 2023).
